ChEMBL document CHEMBL1201862, “PubChem BioAssay data set” (2004)
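The compound was tested at five concentrations on cells cultured in 96-well plates, with a 48-hour exposure period. Here, GI50 denotes the concentration required for 50% inhibition of growth.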 Active and inactive are the calls of the source. Cut-off read from the data, not from the text of the source: active = GI50 up to about 1.1 µM and inactive = higher.

Experiments:
Assay in all cases: NCI-60 cell line screen, 48 h
HT-29 = test system: HT-29
786-0 = test system: 786-0
A498 = test system: A498
COLO 205 = test system: COLO 205
T47D = test system: T47D
OVCAR-4 = test system: OVCAR-4
OVCAR-3 = test system: OVCAR-3
RPMI-8226 = test system: RPMI-8226
NCI-H522 = test system: NCI-H522
SK-MEL-5 = test system: SK-MEL-5
SR = test system: SR
OVCAR-5 = test system: OVCAR-5
MDA-N = test system: MDA-N
IGROV-1 = test system: IGROV-1
SW-620 = test system: SW-620
EKVX = test system: EKVX
SNB-75 = test system: SNB-75
UACC-257 = test system: UACC-257
Malme-3M = test system: Malme-3M
SF-295 = test system: SF-295

Measured: GI50

O=C(Cc1ccccc1)Nn1c(-c2ccccc2)nc2ccccc2c1=O
inactive: HT-29 > 100 µM | 786-0 > 100 µM | A498 62.7 µM | COLO 205 > 100 µM | T47D > 100 µM | OVCAR-4 > 100 µM | OVCAR-3 > 100 µM | RPMI-8226 > 100 µM | NCI-H522 > 100 µM | SK-MEL-5 2.38 µM | SR > 100 µM | OVCAR-5 > 100 µM | MDA-N > 100 µM | IGROV-1 > 100 µM | SW-620 > 100 µM | EKVX > 100 µM | SNB-75 8.83 µM | UACC-257 > 100 µM | Malme-3M > 100 µM | SF-295 > 100 µM

CN(C)CCCN1c2ccccc2CCc2cccc([N+](=O)[O-])c21
inactive: HT-29 14.6 µM | 786-0 15.3 µM | A498 19.5 µM | COLO 205 17.8 µM | T47D 13.7 µM | OVCAR-4 18 µM | OVCAR-3 16.3 µM | RPMI-8226 11.1 µM | NCI-H522 15.8 µM | SK-MEL-5 16.4 µM | SR 13.6 µM | OVCAR-5 28.8 µM | MDA-N 16.2 µM | IGROV-1 16.9 µM | SW-620 17.7 µM | EKVX 49.3 µM | SNB-75 6.34 µM | UACC-257 20.4 µM | Malme-3M 16.9 µM | SF-295 16.5 µM

CN(C)CCN(c1ccccn1)c1ccccn1
inactive: HT-29 > 100 µM | 786-0 > 100 µM | A498 > 100 µM | COLO 205 > 100 µM | T47D > 100 µM | OVCAR-4 > 100 µM | OVCAR-3 > 100 µM | RPMI-8226 > 100 µM | NCI-H522 > 100 µM | SK-MEL-5 > 100 µM | SR > 100 µM | OVCAR-5 > 100 µM | MDA-N > 100 µM | IGROV-1 > 100 µM | SW-620 > 100 µM | EKVX > 100 µM | SNB-75 > 100 µM | UACC-257 > 100 µM | Malme-3M > 100 µM | SF-295 > 100 µM

CC(=O)OC1COC(Nc2nc(N)n(C)c(=O)c2N=O)C(OC(C)=O)C1OC(C)=O (stereo not given)
inactive: HT-29 > 10 µM | 786-0 > 10 µM | A498 > 10 µM | COLO 205 > 10 µM | T47D > 10 µM | OVCAR-4 > 10 µM | OVCAR-3 > 10 µM | RPMI-8226 > 10 µM | NCI-H522 > 10 µM | SK-MEL-5 > 10 µM | SR > 10 µM | OVCAR-5 > 10 µM | MDA-N > 10 µM | IGROV-1 > 10 µM | SW-620 > 10 µM | EKVX > 10 µM | SNB-75 > 10 µM | UACC-257 > 10 µM | Malme-3M > 10 µM | SF-295 > 10 µM

O=C(CSc1nc(O)nc2[nH]cnc12)Nc1ccccc1
inactive: HT-29 > 100 µM | 786-0 57.5 µM | A498 76.7 µM | COLO 205 > 100 µM | T47D > 100 µM | OVCAR-4 > 100 µM | OVCAR-3 > 100 µM | RPMI-8226 > 100 µM | NCI-H522 86.9 µM | SK-MEL-5 46.7 µM | SR 51.6 µM | OVCAR-5 > 100 µM | MDA-N 57.5 µM | IGROV-1 > 100 µM | SW-620 66.4 µM | EKVX > 100 µM | SNB-75 > 100 µM | UACC-257 86.9 µM | Malme-3M > 100 µM | SF-295 86.9 µM

c1cc(C[S+]2CCCC2)ccc1C[S+]1CCCC1
inactive: HT-29 > 100 µM | 786-0 > 100 µM | A498 29.2 µM | COLO 205 > 100 µM | T47D > 100 µM | OVCAR-4 > 100 µM | OVCAR-3 > 100 µM | RPMI-8226 > 100 µM | NCI-H522 > 100 µM | SK-MEL-5 > 100 µM | SR > 100 µM | OVCAR-5 > 100 µM | MDA-N > 100 µM | IGROV-1 > 100 µM | SW-620 > 100 µM | EKVX > 100 µM | SNB-75 52.1 µM | UACC-257 > 100 µM | Malme-3M > 100 µM | SF-295 > 100 µM
